# Article PMC8286840, “Identifying SARS-CoV-2 antiviral compounds by screening for small molecule inhibitors of Nsp3 papain-like protease” (Biochemical Journal, 2021)
# Counter-ions that a name gives are not always drawn. Like-named read-outs stand apart in the source and are kept apart here.
# Legend:
# [1] = target: T1, SARS-CoV-2 PLpro (nsp3 1564–1878) (Severe acute respiratory syndrome coronavirus 2, UniProt P0DTD1); assay: biochemical; design: FRET-quenched peptide (Pro3) cleavage by PLpro, 10 min pre-incubation, slope over 20 min, normalised to no-compound control; conditions: low concentration screen, read-out: % of control remaining
# [2] = target: T1, SARS-CoV-2 PLpro (nsp3 1564–1878); assay: biochemical; design: FRET-quenched peptide (Pro3) cleavage by PLpro, 10 min pre-incubation, slope over 20 min, normalised to no-compound control; conditions: high concentration screen, read-out: % of control remaining
smiles,measurement,setting,value
Nc1nc2c(ncn2COC(CO)CO)c(=O)[nH]1 [Ganciclovir],remaining activity at 1.25 µM,[1]; Well no.=667,99.1%
same,remaining activity at 1.25 µM,[1]; Well no.=2168,97.3%
same,remaining activity at 1.25 µM,[1]; Well no.=8062,97.2%
same,remaining activity at 3.75 µM,[2]; Well no.=667,97.3%
same,remaining activity at 3.75 µM,[2]; Well no.=2168,99.3%
same,remaining activity at 3.75 µM,[2]; Well no.=8062,97.7%
CC(=O)OCC1=C[C@H]2[C@@H]3C(C)(C)[C@]3(OC(=O)Cc3ccccc3)C[C@@H](C)[C@]2(O)[C@@H]2C=C(C)C(=O)[C@@]2(O)C1 [12-Deoxyphorbol 13-phenylacetate 20-acetate],remaining activity at 1.25 µM,[1]; Well no.=3229,107%
same,remaining activity at 3.75 µM,[2]; Well no.=3229,105%
CS(=O)(=O)N1CCN(Cc2cc3nc(-c4cccc5[nH]ncc45)nc(N4CCOCC4)c3s2)CC1 [GDC-0941],remaining activity at 1.25 µM,[1]; Well no.=2801,103%
same,remaining activity at 3.75 µM,[2]; Well no.=2801,101%
Nc1nc(Nc2ccc(S(N)(=O)=O)cc2)nn1C(=S)Nc1c(F)cccc1F [Cdk1/2 Inhibitor III],remaining activity at 1.25 µM,[1]; Well no.=2368,99.3%
same,remaining activity at 3.75 µM,[2]; Well no.=2368,102%
COc1cc(OC)c(C=C2C(=O)Nc3ccccc32)c(OC)c1 [IC261],remaining activity at 1.25 µM,[1]; Well no.=2506,103%
same,remaining activity at 3.75 µM,[2]; Well no.=2506,103%
CCN1CCCC1CNC(=O)c1cc(S(N)(=O)=O)ccc1OC (centres unmarked) [Sulpiride],remaining activity at 1.25 µM,[1]; Well no.=6423,99.1%
same,remaining activity at 3.75 µM,[2]; Well no.=6423,97.9%
COc1cc2c(cc1OC)-c1cc3ccc(OC)c(OC)c3c[n+]1CC2 [Palmatine chloride],remaining activity at 1.25 µM,[1]; Well no.=3641,101%
same,remaining activity at 3.75 µM,[2]; Well no.=3641,99.2%
CC(C)(OO)c1ccccc1 [Cumene hydroperoxide],remaining activity at 1.25 µM,[1]; Well no.=3843,103%
same,remaining activity at 3.75 µM,[2]; Well no.=3843,100%
"CCCn1c(=O)c2[nH]c(C3CCCC3)nc2n(CCC)c1=O [8-Cyclopentyl-1,3-dipropylxanthine]",remaining activity at 1.25 µM,[1]; Well no.=675,93.6%
same,remaining activity at 3.75 µM,[2]; Well no.=675,97.1%
CNC(=O)c1c(F)cccc1Nc1nc(Nc2cc3c(ccn3C(=O)CN(C)C)cc2OC)nc2[nH]ccc12 [GSK1838705A],remaining activity at 1.25 µM,[1]; Well no.=5310,98%
same,remaining activity at 3.75 µM,[2]; Well no.=5310,92%
COc1ccc(-c2cc(=O)c3c(O)cc(O)cc3o2)cc1O [Diosmetine],remaining activity at 1.25 µM,[1]; Well no.=3573,97.4%
same,remaining activity at 3.75 µM,[2]; Well no.=3573,97.7%
"Oc1ccc2ccccc2c1SSc1c(O)ccc2ccccc12 [p21-Activated Kinase Inhibitor III, IPA-3]",remaining activity at 1.25 µM,[1]; Well no.=2525,99.9%
same,remaining activity at 3.75 µM,[2]; Well no.=2525,102%
"CCCCCCCCC#CCC#CCC#CCCCC(=O)O [5,8,11-Eicosatriynoic acid]",remaining activity at 1.25 µM,[1]; Well no.=411,101%
same,remaining activity at 1.25 µM,[1]; Well no.=4470,96.8%
same,remaining activity at 3.75 µM,[2]; Well no.=411,97.5%
same,remaining activity at 3.75 µM,[2]; Well no.=4470,92.3%
O=c1[nH]c2ccc(Cl)cc2c(N[C@@H]2CN3CCC2CC3)c1-c1nc2ccccc2[nH]1 [CHIR-124],remaining activity at 1.25 µM,[1]; Well no.=5338,96.2%
same,remaining activity at 3.75 µM,[2]; Well no.=5338,97.2%
N#CC(C#N)=Cc1ccc(O)c(O)c1 [Tyrphostin 23],remaining activity at 1.25 µM,[1]; Well no.=1341,94.2%
same,remaining activity at 3.75 µM,[2]; Well no.=1341,93.9%
"Clc1ccc(C(c2ccccc2Cl)C(Cl)Cl)cc1 (centres unmarked) [1-(2-Chlorophenyl)-1-(4-chlorophenyl)-2,2-dichloroethane]",remaining activity at 1.25 µM,[1]; Well no.=76,96.7%
same,remaining activity at 3.75 µM,[2]; Well no.=76,97.1%
O=C(NC(Cc1cc(=O)[nH]c2ccccc12)C(=O)O)c1ccc(Cl)cc1 (centres unmarked) [Rebamipide],remaining activity at 1.25 µM,[1]; Well no.=2197,99.1%
same,remaining activity at 1.25 µM,[1]; Well no.=6992,95.1%
same,remaining activity at 3.75 µM,[2]; Well no.=2197,98.5%
same,remaining activity at 3.75 µM,[2]; Well no.=6992,98.9%
C[C@H](CCC(=O)NCC(=O)O)[C@H]1CC[C@H]2[C@@H]3[C@@H](O)C[C@@H]4C[C@H](O)CC[C@]4(C)[C@H]3CC[C@]12C [Glycoursodeoxycholic acid],remaining activity at 1.25 µM,[1]; Well no.=7311,108%
same,remaining activity at 3.75 µM,[2]; Well no.=7311,106%
NC(N)=NCCSSCCN=C(N)N [Guanidinoethyl disulfide dihydrobromide],remaining activity at 1.25 µM,[1]; Well no.=429,89.1%
same,remaining activity at 3.75 µM,[2]; Well no.=429,88.8%
CN1C(C)(C)CCCC1(C)C [Pempidine tartrate],remaining activity at 1.25 µM,[1]; Well no.=1052,94%
same,remaining activity at 3.75 µM,[2]; Well no.=1052,95%
COc1ccc(C2=N[C@@H](c3ccc(Cl)cc3)[C@@H](c3ccc(Cl)cc3)N2C(=O)N2CCNC(=O)C2)c(OC(C)C)c1 [Nutlin (3)],remaining activity at 1.25 µM,[1]; Well no.=6356,98.9%
same,remaining activity at 1.25 µM,[1]; Well no.=7836,103%
same,remaining activity at 3.75 µM,[2]; Well no.=6356,101%
same,remaining activity at 3.75 µM,[2]; Well no.=7836,99.3%
N#Cc1ccnc(N2C(=O)CC[C@H]2C(=O)N(c2cncc(F)c2)[C@H](C(=O)NC2CC(F)(F)C2)c2ccccc2Cl)c1 [Ivosidenib (AG-120)],remaining activity at 1.25 µM,[1]; Well no.=8630,95.1%
same,remaining activity at 3.75 µM,[2]; Well no.=8630,92.7%
COc1cc(NS(=O)(=O)c2ccc(N)cc2)ncn1 [Sulfamonomethoxine],remaining activity at 1.25 µM,[1]; Well no.=7544,98.1%
same,remaining activity at 3.75 µM,[2]; Well no.=7544,98.5%
CN1C(=O)C[C@H](C(=O)O)[C@H]1c1cccnc1 [Trans-4-Cotininecarboxylic acid],remaining activity at 1.25 µM,[1]; Well no.=3200,95.4%
same,remaining activity at 3.75 µM,[2]; Well no.=3200,97.7%
c1ccc2c(Cc3c[nH]c4ccccc34)c[nH]c2c1 [Diindolylmethane],remaining activity at 1.25 µM,[1]; Well no.=3516,102%
same,remaining activity at 1.25 µM,[1]; Well no.=4509,88.9%
same,remaining activity at 3.75 µM,[2]; Well no.=3516,104%
same,remaining activity at 3.75 µM,[2]; Well no.=4509,92.4%
COC[C@H]1OC(=O)c2coc3c2[C@@]1(C)C1=C(C3=O)C2CCC(=O)[C@@]2(C)C[C@H]1OC(C)=O (some centres unmarked) [Wortmannin from Penicillium funiculosum],remaining activity at 1.25 µM,[1]; Well no.=1386,92.9%
same,remaining activity at 3.75 µM,[2]; Well no.=1386,94.7%
Cc1cnc(CNC(=O)c2c(=O)c3ccc(N4CCCN(C)CC4)nc3n3c2sc2ccccc23)cn1 [CX-5461],remaining activity at 1.25 µM,[1]; Well no.=5340,99.1%
same,remaining activity at 3.75 µM,[2]; Well no.=5340,102%
O=C(/C=C/c1cccnc1)NCCCCC1CCN(C(=O)c2ccccc2)CC1 [(2E)-N-[4-(1-benzoyl-4-piperidinyl)butyl]-3-(3-pyridinyl)-2-propenamide hydrochloride hydrate],remaining activity at 1.25 µM,[1]; Well no.=5694,97.8%
same,remaining activity at 3.75 µM,[2]; Well no.=5694,92.8%
Cn1c(=O)c(-c2c(Cl)cccc2Cl)cc2cnc(Nc3cccc(C(=O)O)c3)nc21 [PD173955-Analog1],remaining activity at 1.25 µM,[1]; Well no.=2849,101%
same,remaining activity at 3.75 µM,[2]; Well no.=2849,99.7%
CC[C@@H]1/C=C(\C)C[C@H](C)C[C@H](OC)[C@H]2O[C@@](O)(C(=O)C(=O)N3CCCC[C@H]3C(=O)O[C@H](/C(C)=C/[C@@H]3CC[C@@H](O)[C@H](OC)C3)[C@H](C)[C@@H](O)CC1=O)[C@H](C)C[C@@H]2OC [Ascomycin],remaining activity at 1.25 µM,[1]; Well no.=6638,102%
same,remaining activity at 1.25 µM,[1]; Well no.=7410,98%
same,remaining activity at 3.75 µM,[2]; Well no.=6638,98.9%
same,remaining activity at 3.75 µM,[2]; Well no.=7410,96.8%
